Assays:
[1] = xn = mol fraction of the nth substance listed; settings: 101 kPa, Liquid; for speed of sound: Pulse-echo method
[2] = refractive index (Na D-line) (dimensionless); xn = mol fraction of the nth substance listed; settings: 101 kPa, Liquid, Standard Abbe refractometry

Cc1cc(C)cc(C)c1 [1,3,5-trimethylbenzene] + CC1CCCCC1
Settings	mass density, [1] [kg/m3]	refractive index, [2]	speed of sound, [1] [m/s]
298.15 K, x2 = 0	861.1	1.49693	1336
298.15 K, x2 = 0.0463	856.7	1.49346	1330
298.15 K, x2 = 0.0962	851.9	1.48973	1323
298.15 K, x2 = 0.197	842.2	1.48211	1310
298.15 K, x2 = 0.2868	833.5	1.47524	1298
298.15 K, x2 = 0.3963	822.8	1.46685	1283
298.15 K, x2 = 0.4972	813	1.45909	1271
298.15 K, x2 = 0.5956	803.4	1.45153	1259
298.15 K, x2 = 0.6974	793.6	1.44373	1247
298.15 K, x2 = 0.7932	784.3	1.43635	1236
298.15 K, x2 = 0.8942	774.8	1.42859	1226
298.15 K, x2 = 0.9497	769.6	1.42444	1220
313.15 K, x2 = 0	848.8	1.48923	1277
313.15 K, x2 = 0.0524	843.8	1.48547	1269
313.15 K, x2 = 0.1075	838.5	1.48144	1262
313.15 K, x2 = 0.2051	829.1	1.47418	1248
313.15 K, x2 = 0.314	818.5	1.466	1233
313.15 K, x2 = 0.4067	809.5	1.45892	1221
313.15 K, x2 = 0.5093	799.5	1.45103	1207
313.15 K, x2 = 0.6083	789.8	1.44335	1195
313.15 K, x2 = 0.7071	780.1	1.43558	1183
313.15 K, x2 = 0.8106	770.1	1.42752	1171
313.15 K, x2 = 0.9093	760.4	1.41983	1159
313.15 K, x2 = 0.9596	755.7	1.41588	1154

Cc1cccc(C)c1 [1,3-dimethylbenzene] + C1CCCC1
x2 = 0
Settings	mass density, [1] [kg/m3]	refractive index, [2]	speed of sound, [1] [m/s]
298.15 K	859.8	1.49466	1321
313.15 K	846.9	1.48653	1259

Cc1cccc(C)c1 [1,3-dimethylbenzene] + C1CCCCC1
Settings	mass density, [1] [kg/m3]	refractive index, [2]	speed of sound, [1] [m/s]
298.15 K, x2 = 0	859.8	1.49466	1321
298.15 K, x2 = 0.0346	856.9	1.49219	1317
298.15 K, x2 = 0.096	851.4	1.48781	1310
298.15 K, x2 = 0.1974	842.2	1.48052	1300
298.15 K, x2 = 0.2879	834.1	1.47391	1291
298.15 K, x2 = 0.3982	824.1	1.46589	1281
298.15 K, x2 = 0.5005	815	1.45851	1273
298.15 K, x2 = 0.6019	806.2	1.45128	1267
298.15 K, x2 = 0.6976	797.9	1.44447	1261
298.15 K, x2 = 0.7985	789.4	1.43723	1257
298.15 K, x2 = 0.9021	781.1	1.42992	1254
298.15 K, x2 = 0.9509	777.4	1.42673	1254
313.15 K, x2 = 0	846.9	1.48653	1259
313.15 K, x2 = 0.0355	843.7	1.48408	1255
313.15 K, x2 = 0.095	838.3	1.47988	1248
313.15 K, x2 = 0.1903	829.6	1.47305	1238
313.15 K, x2 = 0.2937	820.2	1.46566	1227
313.15 K, x2 = 0.3969	810.8	1.45826	1217
313.15 K, x2 = 0.4919	802.3	1.45153	1209
313.15 K, x2 = 0.5952	793.1	1.44402	1200
313.15 K, x2 = 0.6963	784.3	1.43677	1193
313.15 K, x2 = 0.7968	775.5	1.42954	1187
313.15 K, x2 = 0.8984	767.3	1.42246	1183
313.15 K, x2 = 0.9496	763.45	1.41885	1182

Cc1cccc(C)c1 [1,3-dimethylbenzene] + C1CCCCCCC1
x2 = 0
Settings	mass density, [1] [kg/m3]	refractive index, [2]	speed of sound, [1] [m/s]
298.15 K	859.8	1.49466	1321
313.15 K	846.9	1.48653	1259

Cc1cccc(C)c1 [1,3-dimethylbenzene] + CC1CCCCC1
Settings	mass density, [1] [kg/m3]	refractive index, [2]	speed of sound, [1] [m/s]
298.15 K, x2 = 0	859.8	1.49466	1321
298.15 K, x2 = 0.0514	854.4	1.49046	1313
298.15 K, x2 = 0.0975	849.6	1.4867	1307
298.15 K, x2 = 0.159	843.2	1.48174	1298
298.15 K, x2 = 0.2977	829.1	1.47072	1281
298.15 K, x2 = 0.399	819.1	1.46292	1269
298.15 K, x2 = 0.4954	809.7	1.45565	1258
298.15 K, x2 = 0.5965	800.2	1.44827	1248
298.15 K, x2 = 0.6974	791	1.44107	1238
298.15 K, x2 = 0.7948	782.3	1.4343	1230
298.15 K, x2 = 0.8933	773.8	1.42759	1222
298.15 K, x2 = 0.9495	769.1	1.42388	1218
313.15 K, x2 = 0	846.9	1.48653	1259
313.15 K, x2 = 0.0457	842.1	1.4829	1252
313.15 K, x2 = 0.0933	837.1	1.47908	1246
313.15 K, x2 = 0.1938	826.7	1.47103	1232
313.15 K, x2 = 0.2886	817	1.46361	1219
313.15 K, x2 = 0.3966	806.3	1.45534	1206
313.15 K, x2 = 0.5077	795.5	1.44702	1194
313.15 K, x2 = 0.595	787.3	1.44063	1184
313.15 K, x2 = 0.6933	778.3	1.43362	1175
313.15 K, x2 = 0.7987	768.8	1.42615	1165
313.15 K, x2 = 0.8973	760.3	1.41945	1157
313.15 K, x2 = 0.9504	756.1	1.41609	1153

Cc1ccc(C)cc1 [1,4-dimethylbenzene] + C1CCCC1
x2 = 0
Settings	mass density, [1] [kg/m3]	refractive index, [2]	speed of sound, [1] [m/s]
298.15 K	856.6	1.49312	1310
313.15 K	843.5	1.48444	1248

— the NIST ThermoML archive (doi:10.1021/je901020a)
